Experimental data from patent publication US11331280B2, “Methods for inhibiting conversion of choline to trimethylamine (TMA)” (The Procter & Gamble Company, priority 2018, dated 2022).

Key:
[1] = system: human fecal polymicrobial community; assay: Example 11: human fecal polymicrobial incubation with d9-choline, compound screening; type: cell-based; settings: TABLE 11, fecal slurry, 50 μM d9-choline chloride, 20 hours, doses 250 μM to 0.238 nM, read-out: TMA Inhibition (IC50, mol/L)
Protocol: Human fecal polymicrobial incubation with deuterium labeled choline compound screening method, including cell viability assay. All materials were pre-reduced in an anaerobic chamber for 24 hours before using in the experiments and experimental procedures were performed under anaerobic conditions (chamber purged with 85% nitrogen, 5% hydrogen, 10% carbon dioxide).
Human fecal samples were collected from a healthy volunteer with no chronic illnesses, blood borne diseases or active infections. The volunteer had not received antibiotics within two months prior to donation and provided written informed consent. Samples were diluted to make a 20% (w/v) fecal slurry by resuspension of the feces in a media containing 3% (w/v) tryptic soy broth (BBL #211825), 1% (w/v) trehalose (Sigma #T9631), pH 7.3. The fecal slurry was homogenized and filtered by hand using a stomacher bag with an integrated 170 μm membrane. DMSO (5% (w/v)) was added to the filtered slurry and aliquots were stored in cryogenic vials at −80° C. until use. […] After 20 hours, an aliquot of the fecal polymicrobial community was analyzed for viability using PrestoBlue cell viability reagent (Thermo Fisher Scientific, USA) as described below. […] The products were determined by LC/MS/MS and IC50 values were calculated as described previously for detection and analysis of TMA and d9-TMA in EXAMPLE 9. […]

[2] = system: Proteus mirabilis 29906 (Pm) lysate; assay: Example 10: inhibition of formation of TMA from choline by compounds in Proteus mirabilis lysate; type: biochemical; settings: TABLE 10, 50 μM d9-choline chloride, two hours at 37° C., read-out: TMA Inhibition (IC50, mol/L)
Protocol: This example provides an exemplary assay for identifying and characterizing compounds that inhibit the formation of TMA from choline.
Proteus mirabilis 29906 (Pm) strain was grown aerobically overnight in 500 ml of Nutrient Broth media (3 g/L beef extract, 5 g/L Peptone; Difco #234000) at 37° C. with 250 rpm shaking. The biomass was pelleted by centrifugation at 6000×g for 12 minutes at 4° C. The cell pellet was suspended in 240 mL of ice-cold 1× Phosphate Buffered Saline (Ca^2+ and Mg^2+ free). Ninety micrograms of Lysozyme (Sigma #L6876 Lot #SLBG8654V; Sigma-Aldrich Corp., St. Louis, Mo.) was added and incubated with 320 rpm shaking for 30 minutes at 4° C. Lysis was achieved via French press with a 4° C. prechilled 1″ diameter chamber at 1000 psi (high ratio; internal PSI equivalent ˜16000). The lysate was centrifuged at 6,000×g for 12 minutes at 4° C. to pellet extra debris. A protein concentration of the centrifuged lysate supernatant was determined by a BCA Protein Assay Kit (Pierce #23225; Thermo Fisher Scientific Co., Waltham, Mass.) and protein concentration adjusted to 3 mg/ml with 1× Dulbecco's phosphate buffered saline (DPBS). […]
The plates were again agitated on a plate shaker for 1 minute and incubated at 37° C. for two hours. […] The supernatant was removed and analyzed as described below. […]

C[S+](C)(=O)CCO [(2-hydroxyethyl) dimethylsulfoxonium chloride]
IC50 [1]: 97.3 nM
IC50 [2]: 7.74 nM
